Source: patent publication US9556223B2, “Antimicrobial compounds” (priority 2008, dated 2017)
≈ marks a conversion by molar mass, not a printed value.

Assays:
[1] = test system: Staphylococcus haemolyticus; experiment: Susceptibility testing under planktonic growth condition (MIC); details: E-test (rifampicin: broth microdilution)
[2] = test system: Staphylococcus epidermidis; experiment: as above; details: E-test (rifampicin: broth microdilution)
Staphylococcus aureus = experiment: as above; details: E-test (rifampicin: broth microdilution)
[3] = test system: Methicillin resistant Staphylococcus aureus (MRSA) strain ATCC 33591; format: cell-based
Experimental: (§1) MIC determinations on Staphylococcus aureus, strain ATCC 25923, Methicillin resistant Staphylococcus aureus (MRSA) strain ATCC 33591 and Methicillin resistant Staphylococcus epidermidis (MRSE) strain ATCC 27626 were performed by Toslab AS using standard methods. Amsterdam, D. (1996) Susceptibility testing of antimicrobials in liquid media, in Antibiotics in Laboratory Medicine. 4th ed (Lorian, V., Ed.) pp 75-78, Williams and Wilkins Co; Baltimore.

C. albicans = format: cell-based
S. pyogenes = format: cell-based
E. coli = format: cell-based
[4] = test system: Staphylococcus aureus, strain ATCC 25923; format: cell-based
Experimental: as §1

P. aeruginosa = format: cell-based
[5] = test system: S. haemolyticus TUH 51-07 biofilm; experiment: Biofilm imaging, LIVE/DEAD staining, confocal laser scanning microscopy; format: cell-based
Experimental: One ml aliquots of MHIIB-diluted overnight culture was used to grow S. haemolyticus TUH 51-07 biofilm on plastic coverslides (Thermanox, cellculture treated on one side, NUNC) in 24-well dishes (Falcon 3047, Becton Dickinson, N.J., USA) for 24 h. The coverslides were then washed carefully with PBS, moved to a new plate and treated for 24 h with tetracycline 50 mg/L and 500 mg/L, vancomycin 50 mg/L and 500 mg/L, or Compound […] and 500 mg/L. The coverslides were washed again with […] and stained with a LIVE/DEAD kit (Invitrogen Molecular Probes, Eugene, Oreg., USA) following the manufacturer's instructions. This stain contains SYTO 9 (green fluorescent) and propidium iodide (PI; red fluorescent), both binding to DNA. When used alone, the SYTO 9 generally stains all bacteria in a population; both those with intact and those with damaged membranes. In contrast, PI penetrates only bacteria with damaged membranes, causing a reduction in the SYTO 9 stain green fluorescence when both dyes are present. We examined treated and untreated biofilms with a Leica TCS SP5 (Leica Microsystems Cms Gmbh, Mannheim, Germany) confocal laser scanning microscope (CLSM). Images were obtained using a 63×1.2 NA HCX PL APO water immersion lens. For detection of SYTO9 (green channel), we used the 488 nm line of the argon laser and a detection bandwidth of 495-515 nm. […]

[6] = strain SH TUH 51-07, blood culture
[7] = strain TUH 51-03, blood culture
[8] = strain SE RP62A ATCC 35984, blood culture
[9] = strain SE TUH 08-16, blood culture

Row | Compound | MIC antibiotics [1, 6] [µg/mL] | MIC antibiotics [1, 7] [µg/mL] | MIC antibiotics [2, 8] [µg/mL] | MIC antibiotics [2, 9] [µg/mL] | MIC antibiotics (Staphylococcus aureus; strain SA PIA 9, joint fluid) [µg/mL] | MIC antibiotics (Staphylococcus aureus; strain SA PIA90, joint fluid) [µg/mL] | MIC MRSA [3] [µg/mL] | MIC C. albicans (C. albicans) [µg/mL] | MIC S. pyogenes (S. pyogenes) [µg/mL] | MIC E. coli (E. coli) [µg/mL] | MIC S. aureus [4] [µg/mL] | MIC P. aeruginosa (P. aeruginosa) [µg/mL] | LIVE/DEAD staining of biofilm cells (green live, red dead) ([5]; 24 h treatment at 50 mg/L) | LIVE/DEAD staining of biofilm cells (green live, red dead) ([5]; 24 h treatment at 500 mg/L)
1 | Cc1onc(-c2ccccc2)c1C(=O)N[C@@H]1C(=O)N2[C@@H]1SC(C)(C)[C@@H]2C(=O)O [OXA, oxacillin] | >256 | >256 | 8 (≈ 19.9 µM) | 16 (≈ 39.9 µM) | 1 (≈ 2.49 µM) | 1 (≈ 2.49 µM) | – | – | – | – | – | – | – | –
2 | CO[C@H]1/C=C/O[C@@]2(C)Oc3c(C)c(O)c4c(O)c(c(/C=N/N5CCN(C)CC5)c(O)c4c3C2=O)NC(=O)/C(C)=C\C=C\[C@H](C)[C@H](O)[C@@H](C)[C@@H](O)[C@@H](C)[C@H](OC(C)=O)[C@@H]1C [RIF, rifampicin] | 0.016 (≈ 0.0194 µM) | <0.016 | <0.016 | 0.016 (≈ 0.0194 µM) | <0.016 | 0.016 (≈ 0.0194 µM) | – | – | – | – | – | – | – | –
3 | CC(=O)NC[C@H]1CN(c2ccc(N3CCOCC3)c(F)c2)C(=O)O1 [LZD, linezolid] | 0.5 (≈ 1.48 µM) | 0.5 (≈ 1.48 µM) | 1 (≈ 2.96 µM) | 2 (≈ 5.93 µM) | 2 (≈ 5.93 µM) | 1 (≈ 2.96 µM) | – | – | – | – | – | – | – | –
4 | CC(C)(C)c1cc(C(C)(C)C)c2[nH]c(C(C)(C)C)c(C[C@H](NC(=O)[C@@H](N)CCCNC(=N)N)C(=O)N[C@@H](CCCNC(=N)N)C(=O)NC3CCCC3)c2c1 [Compound 8] | – | – | – | – | – | – | <15 | – | – | – | – | – | – | –
5 | CCCCCCCCCCCCCCCCNC(=O)[C@H](CCCNC(=N)N)NC(=O)[C@H](Cc1c(C(C)(C)C)[nH]c2c(C(C)(C)C)cc(C(C)(C)C)cc12)NC(=O)[C@@H](N)CCCNC(=N)N [Compound 5] | – | – | – | – | – | – | – | >100 | 6 (≈ 6.61 µM) | >100 | 5 (≈ 5.5 µM) | >100 | – | –
6 | CN[C@H](CC(C)C)C(=O)N[C@H]1C(=O)N[C@@H](CC(N)=O)C(=O)N[C@H]2C(=O)N[C@H]3C(=O)N[C@H](C(=O)N[C@H](C(=O)O)c4cc(O)cc(O)c4-c4cc3ccc4O)[C@H](O)c3ccc(c(Cl)c3)Oc3cc2cc(c3O[C@@H]2O[C@H](CO)[C@@H](O)[C@H](O)[C@H]2O[C@H]2C[C@](C)(N)[C@H](O)[C@H](C)O2)Oc2ccc(cc2Cl)[C@H]1O [VAN, vancomycin] | 2 (≈ 1.38 µM) | 4 (≈ 2.76 µM) | 4 (≈ 2.76 µM) | 2 (≈ 1.38 µM) | 2 (≈ 1.38 µM) | 2 (≈ 1.38 µM) | – | – | – | – | – | – | predominantly green cells (live organisms) | –
7 | CN(C)[C@@H]1C(=O)C(C(N)=O)=C(O)[C@@]2(O)C(=O)C3=C(O)c4c(O)cccc4[C@@](C)(O)[C@H]3C[C@@H]12 [TET, tetracycline] | 0.5 (≈ 1.13 µM) | 1 (≈ 2.25 µM) | 0.5 (≈ 1.13 µM) | 2 (≈ 4.5 µM) | 0.5 (≈ 1.13 µM) | 0.5 (≈ 1.13 µM) | – | – | – | – | – | – | – | a significant part of the cells are still green indicating live bacteria with intact cell membrane
8 | gentamicin | 64 | 64 | 8 | 256 | 1 | 0.5 | – | – | – | – | – | – | – | –
